One block for each molecule: values may come before it. Active and inactive are the calls of the source.
Tests used:
[1] = target: T1, Heat shock factor protein 1 (Mus musculus, UniProt P38532); assay: inhibition of MG132-induced HSE-luciferase signal, confirmation, cell-based, NIH3T3, luminescence, dose retest (AID 2382); type: functional;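 further: NIH3T3 fibroblasts with HSF1-driven luciferase reporter stressed by proteasome inhibitor MG132; luminescence from HSF1-driven luciferase expression after 8 hours of MG132 stress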
T1 sequence (P38532 whole entry): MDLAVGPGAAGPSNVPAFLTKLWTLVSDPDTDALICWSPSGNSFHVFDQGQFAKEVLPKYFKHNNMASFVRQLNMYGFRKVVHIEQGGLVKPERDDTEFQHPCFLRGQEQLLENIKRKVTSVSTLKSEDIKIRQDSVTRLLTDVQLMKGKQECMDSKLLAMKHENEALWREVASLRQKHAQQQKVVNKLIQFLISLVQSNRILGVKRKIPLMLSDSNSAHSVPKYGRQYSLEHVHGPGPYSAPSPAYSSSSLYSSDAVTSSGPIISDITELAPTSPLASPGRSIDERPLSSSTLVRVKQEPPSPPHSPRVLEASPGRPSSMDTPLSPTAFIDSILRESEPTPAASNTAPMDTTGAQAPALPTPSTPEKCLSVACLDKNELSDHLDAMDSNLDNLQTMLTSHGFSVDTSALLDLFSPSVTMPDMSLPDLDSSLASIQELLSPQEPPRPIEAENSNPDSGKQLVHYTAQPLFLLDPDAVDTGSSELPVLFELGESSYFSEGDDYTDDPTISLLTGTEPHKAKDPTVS

[2] = target: T2, Zinc finger protein mex-5 (Caenorhabditis elegans, UniProt Q9XUB2); assay: MEX-5/TCR-2 RNA interaction inhibitors, dose response, biochemical, C. elegans, fluorescence polarization (AID 1960)
T2 sequence (Q9XUB2 whole entry): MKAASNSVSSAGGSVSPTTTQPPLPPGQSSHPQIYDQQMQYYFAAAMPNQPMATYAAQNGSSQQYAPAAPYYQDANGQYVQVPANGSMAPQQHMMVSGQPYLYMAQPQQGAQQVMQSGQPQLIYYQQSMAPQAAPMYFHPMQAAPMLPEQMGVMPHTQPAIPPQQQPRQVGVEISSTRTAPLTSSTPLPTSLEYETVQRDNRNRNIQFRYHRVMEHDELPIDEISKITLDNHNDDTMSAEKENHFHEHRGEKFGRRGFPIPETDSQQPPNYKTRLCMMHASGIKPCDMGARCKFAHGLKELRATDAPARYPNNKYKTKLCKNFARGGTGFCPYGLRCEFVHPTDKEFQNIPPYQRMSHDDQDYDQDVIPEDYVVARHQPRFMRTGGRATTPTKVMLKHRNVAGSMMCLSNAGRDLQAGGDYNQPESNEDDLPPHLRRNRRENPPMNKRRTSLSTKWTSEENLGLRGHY

[3] = target: T3, RNA-binding protein pos-1 (Caenorhabditis elegans, UniProt G5EF15); assay: inhibitors of POS-1/mex-3 RNA binding, dose response, biochemical, fluorescence polarization (AID 1964);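 further: purified POS-1 fused to maltose binding protein made in E. coli; potency of compounds blocking POS-1 binding to fluorescent RNA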
T3 sequence (G5EF15 whole entry): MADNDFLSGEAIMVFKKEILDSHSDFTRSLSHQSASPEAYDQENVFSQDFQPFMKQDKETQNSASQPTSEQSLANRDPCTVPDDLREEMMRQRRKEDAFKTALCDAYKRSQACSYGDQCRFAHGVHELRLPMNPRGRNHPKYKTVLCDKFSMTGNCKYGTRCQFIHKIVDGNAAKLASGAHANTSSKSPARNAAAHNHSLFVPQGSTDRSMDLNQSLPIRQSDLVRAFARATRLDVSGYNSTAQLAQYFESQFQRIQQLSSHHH

[4] = cytotoxicity toward NIH3T3 fibroblasts, dose response, counter-screen, cell-based, ATP luminescence, mouse fibroblasts (AID 2010); type: functional;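 further: cells exposed to compound for about 90 hours before reading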
[5] = inhibitors of intracellular T. cruzi replication, confirmation, NIH3T3 host cells, beta-gal luminescence (AID 2044); type: functional, cell-based;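 further: intracellular parasites grown in NIH/3T3 mouse fibroblasts as host cells; luminescent beta-galactosidase reporter signal from transgenic T. cruzi replicating inside host cells; inhibitors lower the luminescence signal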
Leucine aminopeptidase = target: T4, Leucine aminopeptidase (Plasmodium falciparum 3D7, UniProt Q8IL11); assay: P. falciparum M17LAP inhibitors, primary screen, biochemical, fluorogenic H-Leu-NHMec substrate, 1536-well (AID 1619); type: functional
T4 sequence (Q8IL11 whole entry): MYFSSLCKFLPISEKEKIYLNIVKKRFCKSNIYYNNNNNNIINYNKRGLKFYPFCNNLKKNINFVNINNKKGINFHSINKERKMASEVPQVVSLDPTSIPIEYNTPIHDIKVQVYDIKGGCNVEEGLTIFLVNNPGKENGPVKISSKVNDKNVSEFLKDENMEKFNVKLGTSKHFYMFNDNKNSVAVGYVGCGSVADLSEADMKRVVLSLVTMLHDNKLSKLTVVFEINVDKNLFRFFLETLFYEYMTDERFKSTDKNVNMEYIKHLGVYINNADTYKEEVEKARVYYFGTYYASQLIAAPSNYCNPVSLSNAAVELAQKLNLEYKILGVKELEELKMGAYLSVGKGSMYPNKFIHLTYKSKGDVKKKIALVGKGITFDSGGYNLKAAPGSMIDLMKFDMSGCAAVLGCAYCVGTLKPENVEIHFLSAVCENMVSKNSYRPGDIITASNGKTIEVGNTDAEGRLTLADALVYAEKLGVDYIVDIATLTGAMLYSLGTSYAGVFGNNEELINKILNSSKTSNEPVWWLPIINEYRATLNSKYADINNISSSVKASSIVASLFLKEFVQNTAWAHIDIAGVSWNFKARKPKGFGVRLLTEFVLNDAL

[6] = control 3'UTR Renilla luciferase suppression, dose response, counter-screen for Shn3 inhibitor project, cell-based, Clone20-Shn3RL, cherry-picked (AID 624133); type: functional
[7] = HepG2 cell cytotoxicity, dose response, cytotoxicity control for Shn3 inhibitor project, CellTiter-Glo, cherry-picked (AID 624134); type: functional, cell-based
[8] = Shn3 3'UTR reporter inhibitors, dose response, cell-based, Clone20 osteoblasts, firefly luciferase, cherry-picked (AID 624132); type: functional;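 further: firefly luciferase luminescence from reporter carrying the Shn3 3'UTR in osteoblasts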
[9] = target: T5, Rac GTPase-activating protein 1 (Homo sapiens, UniProt Q9H0H5); assay: MgcRacGAP GTPase-activating activity inhibitors, confirmation, biochemical, ADP Hunter fluorescence, primary and confirmatory (AID 624330); type: functional
T5 sequence (Q9H0H5 whole entry): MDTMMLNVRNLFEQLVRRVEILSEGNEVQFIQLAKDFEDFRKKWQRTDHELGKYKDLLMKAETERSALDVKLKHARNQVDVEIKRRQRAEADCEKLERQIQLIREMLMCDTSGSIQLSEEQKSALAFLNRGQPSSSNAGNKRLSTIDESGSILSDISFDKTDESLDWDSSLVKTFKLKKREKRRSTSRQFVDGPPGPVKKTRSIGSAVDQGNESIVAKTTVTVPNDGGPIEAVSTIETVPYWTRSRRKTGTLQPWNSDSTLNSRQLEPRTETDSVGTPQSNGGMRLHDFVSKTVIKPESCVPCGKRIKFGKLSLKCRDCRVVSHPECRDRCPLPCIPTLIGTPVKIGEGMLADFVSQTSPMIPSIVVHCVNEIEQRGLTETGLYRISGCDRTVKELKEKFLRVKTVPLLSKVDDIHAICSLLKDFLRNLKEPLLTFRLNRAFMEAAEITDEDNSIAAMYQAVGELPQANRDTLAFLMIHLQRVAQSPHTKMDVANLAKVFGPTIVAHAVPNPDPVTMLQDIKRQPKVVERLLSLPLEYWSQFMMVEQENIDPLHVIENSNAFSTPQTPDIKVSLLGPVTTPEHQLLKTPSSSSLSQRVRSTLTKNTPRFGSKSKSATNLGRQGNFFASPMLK

Large T antigen = Large T antigen (Simian virus 40, UniProt P03070); type: functional, Betapolyomavirus macacae;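 further: Confirmatory-stage PubChem screen for compounds that inhibit SV40 T antigen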
H9c2 = assay: cells; type: functional, cell-based; conditions: Rattus norvegicus, H9c2, Myocardium;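 further: confirmatory concentration-response retest of ultra-high-throughput screening hits for modulation of myocardial damage; cell death induced by hydrogen peroxide oxidative stress; compound pretreatment for 60 min then peroxide exposure for 2 h; potency is for protecting the cells against peroxide damage rather than for killing them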
[10] = target: T6, Ubiquitin-conjugating enzyme E2 N (Homo sapiens, UniProt P61088); type: functional;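 further: Dose-response confirmation in a TR-FRET assay detecting UBC13-driven polyubiquitin chain formation, inhibition measured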
T6 sequence (P61088 whole entry): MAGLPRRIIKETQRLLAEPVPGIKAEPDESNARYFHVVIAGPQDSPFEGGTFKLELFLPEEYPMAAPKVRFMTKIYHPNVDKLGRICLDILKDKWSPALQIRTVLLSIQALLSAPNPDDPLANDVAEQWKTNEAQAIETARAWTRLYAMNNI

Cytochrome P450 3A4 = Cytochrome P450 3A4 (Homo sapiens, UniProt P08684);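 further: CYP3A4 tested as one member of a cytochrome P450 panel screen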
[11] = Luminescence Cell-Based Dose Retest to Confirm Inhibitors of Cancer Stem Cells. [Related pubchem assays (depositor defined):AID2717, AID2721]; type: functional; conditions: Homo sapiens

Sequence of Large T antigen (P03070 whole entry): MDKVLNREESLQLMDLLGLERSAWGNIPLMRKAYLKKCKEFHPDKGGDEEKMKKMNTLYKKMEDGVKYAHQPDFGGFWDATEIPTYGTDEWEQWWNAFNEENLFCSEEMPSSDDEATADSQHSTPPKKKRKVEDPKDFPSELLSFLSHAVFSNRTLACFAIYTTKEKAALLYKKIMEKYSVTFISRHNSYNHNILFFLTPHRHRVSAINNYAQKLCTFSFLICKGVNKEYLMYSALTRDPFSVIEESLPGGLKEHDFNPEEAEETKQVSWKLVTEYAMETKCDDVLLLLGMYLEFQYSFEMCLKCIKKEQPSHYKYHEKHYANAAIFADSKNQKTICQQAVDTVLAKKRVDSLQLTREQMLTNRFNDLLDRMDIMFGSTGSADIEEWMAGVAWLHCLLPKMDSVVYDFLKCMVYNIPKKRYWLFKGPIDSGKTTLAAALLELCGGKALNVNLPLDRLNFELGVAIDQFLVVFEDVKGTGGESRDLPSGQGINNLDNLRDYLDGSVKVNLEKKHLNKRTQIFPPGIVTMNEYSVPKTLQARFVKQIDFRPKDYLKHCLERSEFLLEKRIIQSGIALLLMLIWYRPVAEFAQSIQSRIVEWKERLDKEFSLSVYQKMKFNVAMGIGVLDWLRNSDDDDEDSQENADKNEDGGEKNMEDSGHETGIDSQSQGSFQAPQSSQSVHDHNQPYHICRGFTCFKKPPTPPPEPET
Sequence of Cytochrome P450 3A4 (P08684 whole entry): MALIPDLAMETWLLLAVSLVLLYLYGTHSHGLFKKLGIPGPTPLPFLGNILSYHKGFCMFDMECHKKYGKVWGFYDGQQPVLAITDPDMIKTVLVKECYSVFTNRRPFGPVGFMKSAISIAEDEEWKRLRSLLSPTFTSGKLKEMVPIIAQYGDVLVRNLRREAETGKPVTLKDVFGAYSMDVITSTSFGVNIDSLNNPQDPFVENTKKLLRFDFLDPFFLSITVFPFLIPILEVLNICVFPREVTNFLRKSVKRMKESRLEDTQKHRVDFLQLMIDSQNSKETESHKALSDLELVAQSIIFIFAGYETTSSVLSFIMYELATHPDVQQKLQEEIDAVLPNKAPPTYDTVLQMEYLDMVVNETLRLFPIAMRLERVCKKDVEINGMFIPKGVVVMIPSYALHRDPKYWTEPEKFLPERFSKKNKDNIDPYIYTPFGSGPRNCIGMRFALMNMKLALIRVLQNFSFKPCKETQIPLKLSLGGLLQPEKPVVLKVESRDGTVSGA

Compound: O=C(NNc1ccccc1)C(=O)NNS(=O)(=O)c1ccc([N+](=O)[O-])cc1
- EC50 [4]: 9.05 µM (active)
- EC50 [5]: 0.87 µM (active)
- EC50 [2]: 5.08 µM (active)
- EC50 [3]: 21.1 µM (active)

Compound: Cc1nc2ccccn2c1C(=O)NC1CCCc2ccccc21 (centres undefined)
- AC50 [6]: 4.51 µM (active)
- AC50 [7]: 46.8 µM (active)
- AC50 [8]: 2.47 µM (active)

Compound: CC1(C)Cc2c(C#N)c(SCc3nc4ccccc4[nH]3)nc(N3CCOCC3)c2CO1
- IC50 (H9c2): 45.5 µM (inactive)

Compound: CN(c1ccccc1)S(=O)(=O)c1cccc(NC(=O)c2ccc3ncsc3c2)c1
- AC50 [6]: 13.3 µM (active)
- AC50 [7]: 53.8 µM (active)
- AC50 [8]: 17.2 µM (active)

Compound: N#Cc1c(-c2cccs2)cc(-c2cccnc2)nc1N
- IC50 (H9c2): > 79 µM (inactive)

Compound: CC(C)NC(=O)C1CCN(C(=O)c2cc3sccc3n2Cc2ccc(F)cc2)CC1
- AC50 [6]: 8.2 µM (active)
- AC50 [7]: 36.6 µM (active)
- AC50 [8]: 5.05 µM (active)

Compound: CCOc1ccc(C2OC34CCCCC3C(C#N)(C#N)C2(C#N)C(=N)O4)cc1OC (centres undefined)
- EC50 [2]: 10.5 µM (active)
- EC50 [3]: 11.8 µM (active)

Compound: CCOC(=O)c1ccc(NC(=O)c2[nH]cnc2C(=O)NCCNC(=O)c2nc[nH]c2C(=O)Nc2ccc(C(=O)OCC)cc2)cc1
- AC50 [7]: 9.03 µM (active)
- AC50 [11]: 0.65 µM (active)
- AC50 [8]: 5.51 µM (active)

Compound: C=C1CC2(CC(c3ccccc3)OC(c3ccccc3)C2)OC1=O (centres undefined)
- AC50 [6]: 7.45 µM (active)
- AC50 [7]: 38.4 µM (active)
- AC50 [8]: 2.49 µM (active)

Compound: O=C(COC(=O)Cc1nnc(O)c2ccccc12)Nc1ccc(Cl)cc1F
- IC50 (H9c2): > 79 µM (inactive)

Compound: COc1cc(-c2cc(NC=O)c3ncc(-c4ccc(C(C)=O)cc4)n3c2)ccc1O
- IC50 (H9c2): > 79 µM (inactive)

Compound: COc1ccc(-c2cc(NC=O)c3ncc(-c4cccc(C(C)=O)c4)n3c2)cc1
- IC50 (H9c2): > 79 µM (inactive)

Compound: COc1cccc(-c2cnc3c(NC(C)=O)cc(-c4cccc(NS(C)(=O)=O)c4)cn23)c1
- IC50 (H9c2): > 79 µM (inactive)

Compound: COc1ccc(-c2ccc3[nH]c4c(c3c2)CCN2C[C@H]3[C@H](C)ON(C)[C@H]3C[C@@H]42)cc1
- IC50 (H9c2): > 79 µM (inactive)

Results, then the molecule that gave them:

- EC50 [1]: > 195 µM (not active)
- EC50 [2]: 18.1 µM (active)
- EC50 [3]: > 300 µM (inconclusive)
Compound: Brc1ccc(C2=CC(c3ccco3)n3ncnc3N2)cc1 (centres undefined)

- EC50 [2]: > 300 µM (not active)
- EC50 [3]: > 300 µM (not active)
Compound: O=S(=O)(c1ccccc1)N1CCC(O)(CSc2ccc(Cl)cc2)CC1

- IC50 (Leucine aminopeptidase): 42.5 µM (active)
Compound: COc1cccc2c(=O)n(CC(=O)N3CCC(C)CC3)ccc12

- IC50 (Leucine aminopeptidase): 6.31 µM (active)
Compound: CCCCc1ccc(NC(=O)N[C@H](C(=O)O)C(C)CC)cc1 (some centres undefined)

- IC50 [9]: 60.7 µM (active)
- IC50 (Large T antigen): 33.1 µM (active)
Compound: Cc1c(N=C2NC(=O)/C(=C/c3ccc(O)cc3)S2)c(=O)n(-c2ccccc2)n1C

- IC50 [10]: > 20 µM (inactive)
Compound: COc1ccc(Nc2cc(Nc3cc(OC)c(OC)c(OC)c3)ncn2)cc1

- AC50 (Cytochrome P450 3A4): 3.16 µM (inconclusive)
- EC50 [2]: > 300 µM (not active)
- EC50 [3]: > 300 µM (not active)
Compound: CN(C)c1ccnc(Oc2ccc(Cl)cc2)c1C#N

- EC50 [2]: > 300 µM (not active)
- EC50 [3]: > 300 µM (not active)
Compound: O=Cc1c(-c2ccccc2)nc2ccccn12

- IC50 (Large T antigen): > 100 µM (active)
Compound: COc1ccc(N2CCN(C(=O)CN(c3ccccc3)S(C)(=O)=O)CC2)cc1

- EC50 [2]: > 300 µM (not active)
- EC50 [3]: > 300 µM (not active)
Compound: CCOC(=O)c1c(-c2ccccc2)csc1NC(=O)/C(C#N)=C/c1ccc(OC)c(OC)c1

- IC50 (Leucine aminopeptidase): 40.3 µM (active)
Compound: COC(=O)c1ccc(NCC(=O)N2CCCCCC2)cc1

- IC50 (Leucine aminopeptidase): 21.7 µM (active)
Compound: O=C(CN1C(=O)C2C3C=CC(C4CC34)C2C1=O)Nc1cnc2ccccc2c1 (centres undefined)

- IC50 [10]: > 20 µM (inactive)
Compound: CCN(CCCNC(=O)c1cc2c(-c3cccc(OC)c3)nn(C)c2s1)Cc1ccccc1

- IC50 (Leucine aminopeptidase): 30.1 µM (active)
Compound: COc1ccc(/C(C)=C2\SC(=S)N(CCC(=O)O)C2=O)cc1

- IC50 (Large T antigen): 9.98 µM (active)
Compound: CN(C)c1ccc(N/C=C/C(=O)C(F)(F)F)cc1

- IC50 [10]: > 20 µM (inactive)
Compound: CCC(=O)NC(c1cc(Cl)c2ccccc2c1O)C1CC1 (centres undefined)

- IC50 [9]: 42.6 µM (active)
- IC50 (Large T antigen): 9.17 µM (active)
Compound: C=C1CC(C(=O)N/N=C/c2ccc(O)cc2)C1

- EC50 [2]: > 150 µM (not active)
- EC50 [3]: 54.6 µM (active)
Compound: COc1ccc(C(=O)/C=C/Nc2ccc([N+](=O)[O-])cc2C)cc1OC

- IC50 [10]: > 20 µM (inactive)
Compound: Cc1ccc2c(c1)c(/N=N/C(=N)S)c(O)n2Cc1ccccc1

- EC50 [2]: 68.8 µM (active)
- EC50 [3]: > 300 µM (not active)
Compound: CCNc1nn2ccccc2c1/C=C(\C#N)C(=O)OCC
